Assay [1] deals with Aedes aegypti. Nature of the assay: Larvicidal activity against Aedes aegypti fourth instar larvae after 24 hrs. In kind it is functional. As to conditions: for LC50: Aedes aegypti, 24 h.
The test system of assay [2] is Aedes aegypti. As to the kind of experiment: Larvicidal activity against Aedes aegypti fourth instar larvae at 20 ug/ml after 24 hrs. In kind it is functional.
For assay [3], the system named is Aedes aegypti. As to the kind of experiment: Larvicidal activity against Aedes aegypti fourth instar larvae at 60 ug/ml after 24 hrs. In kind it is functional, organism-based.
In assay [4] the test system is Aedes aegypti. As to the kind of experiment: Larvicidal activity against Aedes aegypti fourth instar larvae at 6.5 ug/ml after 24 hrs. Type of assay: functional.

≈ marks a conversion by molar mass, not a printed value. Calls of active or inactive are those of the source. The calls are words filed in the database; no cut-off is given here.

In the case of `COC1=C(C)C(=O)c2cccc(O)c2C1=O`, in assay [1], the LC90 was 55.72 µg/mL (≈ 255 µM) and the LC50 – broadly, the concentration lethal to half of the exposed cells or organisms – amounted to 31.5 µg/mL (≈ 144 µM).

In assay [1], `CC1=CC(=O)c2c(ccc(O)c2O)C1=O` returned an LC90 of 19.28 µg/mL (≈ 94.4 µM) and an LC50 of 13.6 µg/mL (≈ 66.8 µM). This molecule also gave an Activity in assay [2] of 100%.

In assay [1], `CC1=CC(=O)c2c(ccc(-c3cc(O)c4c(c3C)C(=O)CCC4=O)c2O)C1=O` returned an LC90 of 42.72 µg/mL (≈ 114 µM) and an LC50 of 31.2 µg/mL (≈ 82.9 µM).

Regarding `CC1=CC(=O)c2c(ccc(C3=C(C)C(=O)c4cccc(O)c4C3=O)c2O)C1=O`, the result in assay [3] was inactive.

In the case of `C[C@H]1C[C@H](O)c2cccc(O)c2C1=O`, the result in assay [3] was inactive.

In assay [1], `C[C@H]1CC(=O)c2c(O)cccc2[C@H]1O` [ISOSHINANOLONE] gave an LC90 of 4.1 µg/mL (≈ 21.3 µM) and a 50% lethal concentration (LC50) of 1.26 µg/mL (≈ 6.56 µM).

For the molecule `CC1=CC(=O)c2c(O)ccc(-c3ccc(O)c4c3C(=O)C(C)=CC4=O)c2C1=O` [MARITINONE], in assay [1], the LC90 turned out to be 53.87 µg/mL (≈ 144 µM) and the 50% lethal concentration (LC50) came out at 40.7 µg/mL (≈ 109 µM).

Turning to `CC1=CC(=O)c2c(O)cccc2C1=O` [PLUMBAGIN], in assay [1], the LC90 came to 6.56 µg/mL (≈ 34.9 µM) and the LC50 was 5.43 µg/mL (≈ 28.9 µM). The same molecule yielded an Activity in assay [4] of 100%.

In the case of `C=C(C)[C@H]1Cc2c(ccc3c2O[C@@H]2COc4cc(OC)c(OC)cc4[C@@H]2C3=O)O1` [ROTENONE], in assay [1], the LC90 came out at 25 µg/mL (≈ 63.4 µM) and the LC50 was determined as 6.2 µg/mL (≈ 15.7 µM).

(Values after ChEMBL document CHEMBL1157890, “Bioactivity-guided isolation of mosquitocidal constituents from the rhizomes of Plumbago capensis Thunb” (2010).)
